Laboratory results published in US20030157516A1, “G protein coupled receptor” (priority 2000, published 2003).
Several values for one entry are separate records, joined by “and”; a condition that tells them apart may be missing. Equal entries are not always repeated. Where two headings read alike, the source gives them in different places.

Tests used:
[1] = molecular target: T1, adenine binding rat receptor (Rattus norvegicus, UniProt Q7TN49); assay: [35S]GTPγS binding on CHO membranes transiently transfected; type: biochemical; settings: for % stim.: increase above basal
T1 construct: expressed in transfected cells; host or cells: CHO cells, transient, lipofectamine PLUS
T1 sequence (Q7TN49 1-304): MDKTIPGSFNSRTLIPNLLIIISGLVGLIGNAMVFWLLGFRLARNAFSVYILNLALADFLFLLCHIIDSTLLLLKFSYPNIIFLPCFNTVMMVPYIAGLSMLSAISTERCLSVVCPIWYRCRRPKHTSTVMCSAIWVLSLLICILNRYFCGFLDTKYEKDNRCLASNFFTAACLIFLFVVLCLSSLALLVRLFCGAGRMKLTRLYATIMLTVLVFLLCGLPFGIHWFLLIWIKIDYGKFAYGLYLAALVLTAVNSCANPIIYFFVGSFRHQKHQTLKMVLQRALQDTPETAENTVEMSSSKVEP
Experimental: a) Methods—Determination of [^35S ]GTPγS binding to the G-proteins was carried out according to a modified procedure of Lazareno (Methods Mol. Biol., 83:107-116, 1997). These experiments were performed for a first functional evaluation of the receptor on the level of a membrane preparation.
The assay mixture contained 10 and 35 μg of membrane protein for the transfected and wild type CHO cells, respectively.
For testing agonistic activity, 175 μl of diluted membranes was pre-incubated in the buffer described above together with 25 μl of buffer and 25 μl of varying concentrations of the compound in a total volume of 225 μl. After a 20 minute pre-incubation period at 30° C., 25 μl of [^35S]GTPγS was added to a final concentration of 0.25 nM and the assay mixtures were further incubated for 20 minutes at 30° C. Bound and free [^35S]GTPγS were separated by rapid filtration over an UniFilter™-96, GF/B™ under reduced pressure using Filtermate 196 filtration (Packard Company (Netherlands). The amount of bound radioactivity on the filter unit was determined after drying of the filters and scintillant addition (Microscint-O; Packard Company) by liquid scintillation counting.
Basal [^35S]GTPγS binding was measured in absence of compounds. Stimulation by agonist was calculated as the percentage increase above basal levels. The sigmoid agonist concentration-response curves were analyzed by non-linear regression using the GraphPad Prism program. The different concentration points were run in duplicates and the reported data were retrieved from independent experiments.

[2] = system: wild type CHO cells; assay: [35S]GTPγS binding on wild type CHO membranes; type: biochemical
Experimental: a) Methods—Determination of [^35S ]GTPγS binding to the G-proteins was carried out according to a modified procedure of Lazareno (Methods Mol. Biol., 83:107-116, 1997). These experiments were performed for a first functional evaluation of the receptor on the level of a membrane preparation. […] For testing agonistic activity, 175 μl of diluted membranes was pre-incubated in the buffer described above together with 25 μl of buffer and 25 μl of varying concentrations of the compound in a total volume of 225 μl. After a 20 minute pre-incubation period at 30° C., 25 μl of [^35S]GTPγS was added to a final concentration of 0.25 nM and the assay mixtures were further incubated for 20 minutes at 30° C. […] The amount of bound radioactivity on the filter unit was determined after drying of the filters and scintillant addition (Microscint-O; Packard Company) by liquid scintillation counting. Basal [^35S]GTPγS binding was measured in absence of compounds. Stimulation by agonist was calculated as the percentage increase above basal levels. The sigmoid agonist concentration-response curves were analyzed by non-linear regression using the GraphPad Prism program. The different concentration points were run in duplicates and the reported data were retrieved from independent experiments.

[3] = system: wild type CHO cells; assay: [3H]adenine competition binding on wild type CHO membranes; settings: 15 nM [3H]adenine
Experimental: The membranes were prepared as total particulate fractions. […] The culturing medium was removed and the cells were washed twice with ice cold phosphate buffered saline (PBS without Ca^2+ and Mg^2+), scraped from the plates in 50 mM Tris-HCl buffer, pH 7.4, and collected by centrifugation (10 minutes at 16,000 RPM at 4° C.). The cell pellet was re-suspended in hypotonic 5 mM Tris-HCl buffer, pH 7.4, and homogenized with an Ultra Turrax homogenizer (Janker Kunkel, Germany). The homogenate was centrifuged at 18,000 RPM for 20 minutes at 4° C. The final pellet was re-suspended in 50 mM Tris-HCl buffer, pH 7.4 and stored in aliquots at −70° C. A protein determination was performed using the Bradford protein assay (Biorad, Germany) using bovine serum albumin (BSA) as standard.
Membranes were thawed on ice and diluted in 50 mM HEPES buffer, pH 7.4 supplemented with 10 mM MgCl2 and 1 mM EGTA. […] Both assays were carried out in a final volume of 500 μl, using 18 μg of membrane protein for the transfected CHO cells and 30 μg of membrane protein for the wild type CHO cells for the saturation binding. For competition binding experiments, 15 and 50 μg of membrane protein was used for the transfected and wild type cells, respectively. The reaction was terminated by rapid filtration through Whatman GF/B filters using a Brandel multi-channel cell harvester (96 wells). The filters were washed three times with 3 ml ice cold 50 mM HEPES buffer, pH 7.4, transferred to liquid scintillation vials and 3 ml of scintillation fluid (Ultima Gold MV, Packard, Netherlands) was added. Samples were counted in a β-scintillation counter after at least 6 hours to permit the glass fiber filters to become uniformly translucent.

[4] = transiently transfected cells, mean of n experiments
[5] = transiently transfected cells, single experiments
[6] = transiently transfected cells, single experiments, read-out: pEC50 (converted)
[7] = transiently transfected CHO membranes

EC50 ([1]; transiently transfected CHO membranes, read-out: mean EC50) [nM]	% stim. [1, 4] [%]	% stim. ([1]; transiently transfected cells, mean of n experiments, listed as adenine) [%]	% stim. [1, 5]	EC50 [1, 6]	pEC50 [1, 4]	EC50 ([1]; transiently transfected cells, mean of n experiments, read-out: pEC50 (converted)) [nM]	Structure (SMILES)	% stim. ([2]; mean of n experiments) [%]	% stim. ([2]; single experiments) [%]	pEC50 ([2]; single experiments)	Ki ([3]; mean of n experiments) [nM]	pIC50 ([3]; mean of n experiments)	stimulation of the receptor ([35S]GTPγS binding) [1, 7]	pIC50 ([3]; single experiments)
112	148	150	177% and 199% and 106% and 111%	95.5 nM and 115 nM and 132 nM	–	–	Nc1ncnc2nc[nH]c12 [Adenine, adenine]	0	0	<5	85	6.87	–	–
–	95	–	–	–	4.35	–	Nc1ncnc2c1ncn2[C@@H]1O[C@H](COP(=O)(O)O)[C@@H](O)[C@H]1O [AMP]	0	0	<4	–	<4	stimulated the receptor partially with a much lower potency	<4
–	129	–	90% and 135% and 161%	16200 nM and 12000 nM and 17800 nM	–	15100	Cn1cnc2ncnc-2c1N [1-Methyladenine]	0	0	<4	–	<4	stimulated the receptor partially with a much lower potency	<4
